The text below walks through data of paper PMC8460509, “Imitating evolution’s tinkering by protein engineering reveals extension of human galectin-7 activity” (Histochemistry and cell biology, 2021).

What all share (test): isothermal titration calorimetry
A general note: ITC needs no label: the signal is the heat of the interaction.

In one assay the target is T1, Gal-1–Gal-7.
T1 construct: gene LGALS1; direct fusion, Gal-1 CRD N-terminal, Gal-7 CRD C-terminal; one polypeptide; recombinant from E. coli
The class given is binding, Homo sapiens. The following applies: 25 °C, pH 7.2, 20 mM phosphate, 10 mM NaCl, 10 mM beta-mercaptoethanol; one-set-of-sites, n fitted. The source says:
isothermal titration calorimetry on Gal-1–Gal-7

The next assay deals with T2, Gal-7–8S–Gal-3.
T2 construct: gene LGALS7; one polypeptide; recombinant from E. coli
In kind it is binding, Homo sapiens. Conditions: 25 °C, pH 7.2, 20 mM phosphate, 10 mM NaCl, 10 mM beta-mercaptoethanol; one-set-of-sites, n fitted; LacNAc 2 mM. The source says: isothermal titration calorimetry on Gal-7–8S–Gal-3

For a further assay, the target named is T3, Gal-7 (Homo sapiens, UniProt P47929).
T3 construct: gene LGALS7; wild type, recombinant from E. coli, lactosylated Sepharose; non-covalent homodimer
In kind it is binding. The following applies: 25 °C. The source says:
isothermal titration calorimetry on Gal-7 | TF) antigen CD176) interacts with Gal-7’s CRD (Table S15, Fig. S11) | The data obtained with Lac (Table S14) corroborated the conclusions on activity

For another assay, the target named is T4, Gal-7–Gal-1.
T4 construct: gene LGALS7; direct fusion, Gal-7 CRD N-terminal, Gal-1 CRD C-terminal; one polypeptide; recombinant from E. coli
The class given is binding, Homo sapiens. The following applies: 25 °C, pH 7.2, 20 mM phosphate, 10 mM NaCl, 10 mM beta-mercaptoethanol; one-set-of-sites, n fitted. The source says:
isothermal titration calorimetry on Gal-7–Gal-1

The next assay deals with T5, Gal-7–8S–Gal-7 (Homo sapiens, UniProt P47929).
T5 construct: gene LGALS7; two Gal-7 CRDs in one polypeptide joined by the 33-amino-acid linker of Gal-8S (covalent homodimer); recombinant from E. coli
The class given is binding. Conditions: 25 °C, pH 7.2, 20 mM phosphate, 10 mM NaCl, 10 mM beta-mercaptoethanol; one-set-of-sites, n fitted. The source says: isothermal titration calorimetry on Gal-7–8S–Gal-7

Another assay has as its target T6, Gal-7–Gal-7 (Homo sapiens, UniProt P47929).
T6 construct: gene LGALS7; two Gal-7 CRDs directly fused in one polypeptide (covalent homodimer, no added residues); recombinant from E. coli
The class given is binding. The following applies: 25 °C, pH 7.2, 20 mM phosphate, 10 mM NaCl, 10 mM beta-mercaptoethanol; one-set-of-sites, n fitted; LacNAc 10 mM. The text has this:
isothermal titration calorimetry on Gal-7–Gal-7

In the next assay the target is T7, Gal-7–Gal-3.
T7 construct: gene LGALS7; one polypeptide; recombinant from E. coli
In kind it is binding, Homo sapiens. The following applies: 25 °C, pH 7.2, 20 mM phosphate, 10 mM NaCl, 10 mM beta-mercaptoethanol; one-set-of-sites, n fitted. The source says: isothermal titration calorimetry on Gal-7–Gal-3

The next assay deals with T8, Gal-3–8S–Gal-7.
T8 construct: gene LGALS3; one polypeptide; recombinant from E. coli
In kind it is binding, Homo sapiens. Conditions: 25 °C, pH 7.2, 20 mM phosphate, 10 mM NaCl, 10 mM beta-mercaptoethanol; one-set-of-sites, n fitted. The text has this: isothermal titration calorimetry on Gal-3–8S–Gal-7

For another assay, the target named is T9, Gal-1–8S–Gal-7.
T9 construct: gene LGALS1; Gal-1 CRD N-terminal, 33-amino-acid linker of Gal-8S, Gal-7 CRD C-terminal; one polypeptide; recombinant from E. coli
In kind it is binding, Homo sapiens. The following applies: 25 °C, pH 7.2, 20 mM phosphate, 10 mM NaCl, 10 mM beta-mercaptoethanol; one-set-of-sites, n fitted. The source says:
isothermal titration calorimetry on Gal-1–8S–Gal-7

Another assay addresses T10, Gal-3–Gal-7.
T10 construct: gene LGALS3; one polypeptide; recombinant from E. coli
In kind it is binding, Homo sapiens. Conditions: 25 °C, pH 7.2, 20 mM phosphate, 10 mM NaCl, 10 mM beta-mercaptoethanol; one-set-of-sites, n fitted. The text has this:
isothermal titration calorimetry on Gal-3–Gal-7

T3 sequence (P47929 whole entry): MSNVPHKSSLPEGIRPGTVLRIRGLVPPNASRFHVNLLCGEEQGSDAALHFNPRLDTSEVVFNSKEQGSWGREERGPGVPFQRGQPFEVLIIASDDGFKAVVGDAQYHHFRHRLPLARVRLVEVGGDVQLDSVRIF
T6 sequence (P47929 whole entry, the tested form may be a part): as the sequence (P47929 whole entry) above
T5 sequence (P47929 whole entry): as above

For `CC(=O)N[C@H]1C(O)O[C@H](CO)[C@@H](O[C@@H]2O[C@H](CO)[C@H](O)[C@H](O)[C@H]2O)[C@@H]1O` (stereo partly drawn) [LacNAc], the equilibrium dissociation constant (Kd) at Gal-1–Gal-7 was determined as 175 ± 2.11 µM; at Gal-7–8S–Gal-3, 32.5 ± 0.81 µM; on Gal-7 (pH 7.2, 20 mM phosphate, 10 mM NaCl, 10 mM beta-mercaptoethanol, one-set-of-sites, n fitted) it was 316 ± 5.88 µM; on Gal-7–Gal-1 it was 103 ± 6.11 µM; at Gal-7–8S–Gal-7, 287 ± 9.55 µM; on Gal-7–Gal-7 it was 261 ± 6.21 µM. Moreover, the Kd at Gal-7–Gal-3 amounted to 86.5 ± 5.75 µM; at Gal-3–8S–Gal-7, 68.6 ± 6.56 µM; at Gal-1–8S–Gal-7 it was 162 ± 3.79 µM; on Gal-3–Gal-7, 96.2 ± 2.1 µM.

Molecule `OC[C@H]1O[C@@H](O[C@H]2[C@H](O)[C@@H](O)C(O)O[C@@H]2CO)[C@H](O)[C@@H](O)[C@H]1O` (stereo partly drawn) [Lac] displayed a Kd on Gal-7 (pH 7.2) of 323 ± 5.7 µM.

At Gal-7 (pH 7.2), `CC(=O)N[C@H]1C(O)O[C@H](CO)[C@H](O)[C@@H]1O[C@@H]1O[C@H](CO)[C@H](O)[C@H](O)[C@H]1O` (stereo partly drawn) [core 1 mucin-type O-glycan disaccharide] yielded a Kd of 1250 ± 126 µM.

As a reminder, the Kd is the free concentration of one partner at which half of the binding sites on the other are occupied at equilibrium, for simple one-to-one binding. Higher therefore signals a looser complex.
